Data published in patent publication US20110124719A1, “COMPOSITION FOR PROMOTING PRODUCTION OF HYALURONIC ACID CONTAINING KAEMPFEROL AND QUERCETIN” (Amorepacific Corporation, priority 2004, published 2011).

What was measured:
Assay type in all cases: cell-based, human
[1] = tested on: hyaluronan synthase 2 (HAS2); test: Quantitative reverse transcription PCR of HAS2 mRNA in HaCaT cells; settings: treated 24 hours, expressed in treatment groups as well as the control group
Text: In order to examine an effect of increasing an expression of a HAS gene by kaempferol and quercetin in HaCaT which is a skin cell line of human epidermis, HaCaT cells were respectively treated with kaempferol and quercetin in several concentrations, then the HAS gene was subject to quantitative reverse transcription PCR so as to examine an expression of the HAS gene in a level of mRNA and thus changes of the HAS genes by kaempferol and quercetin were examined as follows. Human keratinocyte cell line, HaCaT cell, which was spontaneously immortalized, was used and obtained from Dr. N. E. Fusenig (Deutsches Krebsforschungszentrum (DKFZ), Heidelberg, Germany). […] A concentration of RNA was measured with a spectrophotometry method and a quality of RNA was checked with an agarose gel electrophoresis. It was examined through a quantitative reverse transcription PCR kaempferol and quercetin's influences on mRNA synthesis of hyaluronan synthase 1 (NAS1), hyaluronan synthase 2 (HAS2) and hyaluronan synthase 3 (HAS3), which are isoforms of hyaluronic acid synthase, as follows. Firstly, a RNA prepared and quantified in the above experimental example 1-2 was subject to a reverse transcription and then it was performed a quantitative PCR under the presence of primers specific for HAS1, HAS2 and HAS3 which are isoforms of hyaluronic acid synthase. […]

[2] = tested on: hyaluronan synthase 3 (HAS3); test: Quantitative reverse transcription PCR of HAS3 mRNA in HaCaT cells; settings: 24 hours
Text: In order to examine an effect of increasing an expression of a HAS gene by kaempferol and quercetin in HaCaT which is a skin cell line of human epidermis, HaCaT cells were respectively treated with kaempferol and quercetin in several concentrations, then the HAS gene was subject to quantitative reverse transcription PCR so as to examine an expression of the HAS gene in a level of mRNA and thus changes of the HAS genes by kaempferol and quercetin were examined as follows. Human keratinocyte cell line, HaCaT cell, which was spontaneously immortalized, was used and obtained from Dr. N. E. Fusenig (Deutsches Krebsforschungszentrum (DKFZ), Heidelberg, Germany). Firstly, the cells were cultured in a Dulbecco's modified Eagle's media (DMEM) containing 10% fetal bovine serum (HyClone), sodium bicarbonate 3.6 g/l and antibody (streptomycin 100 μg and penicillin 100 IU/l) (Life Technologies, Inc.) under proper culture conditions (37° C., 5% CO2, 95% air). […] A control group was diluted in a ratio of 1:1,000 and cultured in a medium supplemented with vehicle (dimethylsulfoxide, DMSO). It was not observed any effects of DMSO influencing on growth and differentiation in the control group culture. The HaCaT cells cultured in the experimental example 1-1 were cleaned two times with a phosphate-buffered saline (Life Technologies, Inc.) and RNAs of all cells were separated using a trizol reagent (GibcoBRL Life Technologies, Grand Island, N.Y.) according to manufacturer's instructions. A concentration of RNA was measured with a spectrophotometry method and a quality of RNA was checked with an agarose gel electrophoresis. It was examined through a quantitative reverse transcription PCR kaempferol and quercetin's influences on mRNA synthesis of hyaluronan synthase 1 (NAS1), hyaluronan synthase 2 (HAS2) and hyaluronan synthase 3 (HAS3), which are isoforms of hyaluronic acid synthase, as follows. Firstly, a RNA prepared and quantified in the above experimental example 1-2 was subject to a reverse transcription and then it was performed a quantitative PCR under the presence of primers specific for HAS1, HAS2 and HAS3 which are isoforms of hyaluronic acid synthase. […]

[3] = tested on: HaCaT cells; test: HA-ELISA of hyaluronic acid discharged into culture medium of HaCaT cells; settings: 24 hours
Procedure: Firstly, the cells were cultured in a Dulbecco's modified Eagle's media (DMEM) containing 10% fetal bovine serum (HyClone), sodium bicarbonate 3.6 g/l and antibody (streptomycin 100 μg and penicillin 100 IU/l) (Life Technologies, Inc.) under proper culture conditions (37° C., 5% CO2, 95% air). The medium was replaced every three days and the cells were secondary-cultured in a division ratio of 1:5 as soon as the density thereof reached the highest. 1×10^5 cells per 75 cm^2 of a tissue culture flask were aliquot 72 hours before the cell were treated with kaempferol or quercetin, and then cultured in a medium containing 10% fetal bovine serum for 48 hours. Then, the cells were cultured in a serum-free medium for 24 hours, treated with kaempferol and quercetin in concentrations of […], 1 μM and 10 μM, respectively and then cultured for 24 hours. A control group was diluted in a ratio of 1:1,000 and cultured in a medium supplemented with vehicle (dimethylsulfoxide, DMSO).
In order to examine that a production of hyaluronic acid was actually promoted by kaempferol and quercetin, a culture medium of HaCaT cell, which is a skin cell line of human epidermis was treated with kaempferol and quercetin, in several concentrations. After that, an amount of hyaluronic acid that synthesis of hyaluronic acid is promoted and then the acid is discharged into the medium was quantified using HA-ELISA Kit.
To perform the ELISA, it was purchased a Hyaluronan Enzyme-Linked ImmunoSorbent Assay Kit (HA-ELISA, Product No.: K-1200) available from Echelon company. The medium recovered through the above cell cultivation was subject to the HA-ELISA Kit according to manufacturer's instructions, thereby quantifying the synthesis amount of hyaluronic acid that was synthesized in HaCaT cell by kaempferol and quercetin and then discharged into the medium. The control group was diluted in a ratio of 1:1,000 and then cultured in a medium supplemented with vehicle (dimethylsulfoxide, DMSO).
(§1) A significance was considered, based on p=0.05 and data was shown with mean±standard error.

[4] = tested on: HaCaT cells; test: MTT assay of cytotoxicity in HaCaT cells; settings: 24 hours
Procedure: In order to examine cytotoxicity of kaempferol and quercetin in HaCaT, which is a skin cell line of human epidermis, according to the concentrations thereof, HaCaT was treated with kaempferol and quercetin in several concentrations and then degrees of cytotoxicity were quantified through a MTT assay.
HaCaT of human keratinocyte cell line, which was spontaneously immortalized, was used and obtained from Dr. N. E. Fusenig (Deutsches Krebsforschungszentrum (DKFZ), Heidelberg, Germany). The cells were cultured in a Dulbecco's modified Eagle's media (DMEM) containing 10% fetal bovine serum (HyClone), sodium bicarbonate 3.6 g/l and antibody (streptomycin 100 μg and penicillin 100 IU/l) (Life Technologies, Inc.) under proper culture conditions (37° C., 5% CO2, 95% air). The medium was replaced every three days and the cells were secondary-cultured in a division ratio of 1:5 as soon as the density thereof reached the highest. 1×10^4 cells per well of a tissue culture flask 96 well plate were aliquot 72 hours before the cells were treated with kaempferol or quercetin, and then cultured in a medium containing 10% fetal bovine serum for 48 hours. Then, the cells were cultured for 24 hours in a serum-free medium, treated with kaempferol and quercetin in concentrations of 0.1 μM, 1 μM and 10 μM, respectively and then cultured for 24 hours. A control group was diluted in a ratio of 1:1,000 and cultured in a medium supplemented with vehicle (dimethylsulfoxide, DMSO).
as §1

Row | SMILES | expression of HAS2 hyaluronic acid synthase gene (mRNA) [1] | HAS3 mRNA expression compared to the control group ([2]; 1 μM) | HAS3 mRNA expression compared to the control group ([2]; 10 μM) | increase of hyaluronic acid synthesis compared to the control group ([3]; 1 μM) [%] | increase of hyaluronic acid synthesis compared to the control group ([3]; 10 μM) [%] | cytotoxicity compared to the control group (MTT) ([4]; 0.1 μM) | cytotoxicity compared to the control group (MTT) ([4]; 1 μM) | cytotoxicity compared to the control group (MTT) ([4]; 10 μM)
1 | O=c1c(O)c(-c2ccc(O)c(O)c2)oc2cc(O)cc(O)c12 [quercetin] | expressed | increased | increased | 11 | 24 | did not exhibit cytotoxicity | did not exhibit cytotoxicity | did not exhibit cytotoxicity
2 | O=c1c(O)c(-c2ccc(O)cc2)oc2cc(O)cc(O)c12 [kaempferol, Kaempferol] | expressed | increased | increased | 7 | 8 | did not exhibit cytotoxicity | did not exhibit cytotoxicity | did not exhibit cytotoxicity
